Tested on: 521955-158-R2-J5-PDC complex spheroid viability
Test: Anticancer human tumor 521955-158-R2-J5-PDC patient-derived pancreatic carcinoma cell line growth inhibition
Settings: for IC50: curve of first compound; for viability, T/C: stronger effect = lower value
Method in brief: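 Drug combinations with the LSD1 inhibitor iadademstat tested on tumor cells co-cultured as spheroids with endothelial cells and mesenchymal stem cells. Concentrations descended in half-log increments from clinical Cmax or 10 microM.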

[1] = second compound 0.1 µM, first compound 0.000316 µM
[2] = second compound 0.1 µM, first compound 0.001 µM
[3] = second compound 0.1 µM, first compound 0.00316 µM
[4] = second compound 0.1 µM, first compound 0.01 µM
[5] = second compound 0.1 µM, first compound 0.0316 µM
[6] = second compound 0.1 µM, first compound 0.1 µM
[7] = second compound 0.316 µM, first compound 0.000316 µM
[8] = second compound 0.316 µM, first compound 0.001 µM
[9] = second compound 0.316 µM, first compound 0.00316 µM
[10] = second compound 0.316 µM, first compound 0.01 µM
[11] = second compound 0.316 µM, first compound 0.0316 µM
[12] = second compound 0.316 µM, first compound 0.1 µM
[13] = second compound 1 µM, first compound 0.000316 µM
[14] = second compound 1 µM, first compound 0.001 µM
[15] = second compound 1 µM, first compound 0.00316 µM
[16] = second compound 1 µM, first compound 0.01 µM
[17] = second compound 1 µM, first compound 0.0316 µM
[18] = second compound 1 µM, first compound 0.1 µM
[19] = second compound 3.16 µM, first compound 0.000316 µM
[20] = second compound 3.16 µM, first compound 0.001 µM
[21] = second compound 3.16 µM, first compound 0.00316 µM
[22] = second compound 3.16 µM, first compound 0.01 µM
[23] = second compound 3.16 µM, first compound 0.0316 µM
[24] = second compound 3.16 µM, first compound 0.1 µM
[25] = second compound 10 µM, first compound 0.000316 µM
[26] = second compound 10 µM, first compound 0.001 µM
[27] = second compound 10 µM, first compound 0.00316 µM
[28] = second compound 10 µM, first compound 0.01 µM
[29] = second compound 10 µM, first compound 0.0316 µM
[30] = second compound 10 µM, first compound 0.1 µM
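Also: spheroids exposed to agents for seven days.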
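For viability, T/C in this document: percent of DMSO vehicle control luminescence viability.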

`CC(C)CC(NC(=O)C(Cc1ccccc1)NC(=O)c1cnccn1)B(O)O` (stereo not given) + NC1CCC(NC2CC2c2ccccc2)CC1 gave an IC50 (second compound 0.1 µM) of 0.491 nM, an IC50 (second compound 0.316 µM) of 0.468 nM and an IC50 (second compound 1 µM) of 0.509 nM. The IC50 (second compound 3.16 µM) was 0.525 nM, the IC50 (second compound 10 µM) was 0.512 nM and the viability, T/C [1] was 80.7%. For the same molecule, the viability, T/C [2] was 0.24%, the viability, T/C [3] was 0.24% and the viability, T/C [4] was 0.06%. The viability, T/C [5] was 0.05%, the viability, T/C [6] was 0.94% and the viability, T/C [7] was 75.7%. The viability, T/C [8] was 0.23%, the viability, T/C [9] was 0.12% and the viability, T/C [10] was 0.04%. The viability, T/C [11] was 0.07%, the viability, T/C [12] was 0.21% and the viability, T/C [13] was 84.9%. For the same molecule, the viability, T/C [14] was 0.24%, the viability, T/C [15] was 0.06% and the viability, T/C [16] was 0.04%. For the same molecule, the viability, T/C [17] was 0.09%, the viability, T/C [18] was 0.2% and the viability, T/C [19] was 88.1%. For the same molecule, the viability, T/C [20] was 0.24%, the viability, T/C [21] was 0.12% and the viability, T/C [22] was 0.04%. For the same molecule, the viability, T/C [23] was 0.06%, the viability, T/C [24] was 5.74% and the viability, T/C [25] was 82.9%. The viability, T/C [26] was 4.43%, the viability, T/C [27] was 0.22% and the viability, T/C [28] was 0.39%. For the same molecule, the viability, T/C [29] was 0.18% and the viability, T/C [30] was 0.72%.
`CC(C)CC(NC(=O)CNC(=O)c1cc(Cl)ccc1Cl)B1OC(=O)CC(CC(=O)O)(C(=O)O)O1` (stereo not given) + NC1CCC(NC2CC2c2ccccc2)CC1 showed an IC50 (second compound 0.1 µM) of 5.31 nM, an IC50 (second compound 0.316 µM) of 5.02 nM and an IC50 (second compound 1 µM) of 4.9 nM. The IC50 (second compound 3.16 µM) was 5.38 nM, the IC50 (second compound 10 µM) was 4.85 nM and the viability, T/C [1] was 105%. The viability, T/C [2] was 111%, the viability, T/C [3] was 85.9% and the viability, T/C [4] was 6.15%. For the same molecule, the viability, T/C [5] was 0.37%, the viability, T/C [6] was 0.25% and the viability, T/C [7] was 99.8%. It also gave a viability, T/C [8] of 106%, a viability, T/C [9] of 80.4% and a viability, T/C [10] of 4.86%. For the same molecule, the viability, T/C [11] was 0.4%, the viability, T/C [12] was 0.15% and the viability, T/C [13] was 104%. For the same molecule, the viability, T/C [14] was 99.4%, the viability, T/C [15] was 78.2% and the viability, T/C [16] was 4.23%. The viability, T/C [17] was 0.34%, the viability, T/C [18] was 0.23% and the viability, T/C [19] was 108%. It also gave a viability, T/C [20] of 111%, a viability, T/C [21] of 88% and a viability, T/C [22] of 5.7%. For the same molecule, the viability, T/C [23] was 0.29%, the viability, T/C [24] was 0.28% and the viability, T/C [25] was 103%. The viability, T/C [26] was 96.4%, the viability, T/C [27] was 74.5% and the viability, T/C [28] was 8.66%. The viability, T/C [29] was 0.32% and the viability, T/C [30] was 0.38%.
For `COc1cc(Nc2ncc3c(n2)-c2ccc(Cl)cc2C(c2c(F)cccc2OC)=NC3)ccc1C(=O)O` + NC1CCC(NC2CC2c2ccccc2)CC1, the IC50 (second compound 0.1 µM) was 5.87 nM, the IC50 (second compound 0.316 µM) was 34 nM and the IC50 (second compound 1 µM) was 74.5 nM. The IC50 (second compound 3.16 µM) was 15.2 nM, the IC50 (second compound 10 µM) was 42.1 nM and the viability, T/C [3] was 49.1%. It also gave a viability, T/C [4] of 54.5%, a viability, T/C [5] of 45.8% and a viability, T/C [6] of 41.7%. The viability, T/C (second compound 0.1 µM, first compound 0.316 µM) was 44.8%, the viability, T/C (second compound 0.1 µM, first compound 1 µM) was 46.7% and the viability, T/C [9] was 54.4%. The viability, T/C [10] was 56.7%, the viability, T/C [11] was 50.3% and the viability, T/C [12] was 45%. It also gave a viability, T/C (second compound 0.316 µM, first compound 0.316 µM) of 45.2%, a viability, T/C (second compound 0.316 µM, first compound 1 µM) of 46.2% and a viability, T/C [15] of 45.7%. For the same molecule, the viability, T/C [16] was 54.1%, the viability, T/C [17] was 51.5% and the viability, T/C [18] was 49.8%. It also gave a viability, T/C (second compound 1 µM, first compound 0.316 µM) of 41.8%, a viability, T/C (second compound 1 µM, first compound 1 µM) of 38% and a viability, T/C [21] of 55.2%. The viability, T/C [22] was 50.2%, the viability, T/C [23] was 50.1% and the viability, T/C [24] was 44.9%. The viability, T/C (second compound 3.16 µM, first compound 0.316 µM) was 39.1%, the viability, T/C (second compound 3.16 µM, first compound 1 µM) was 41.8% and the viability, T/C [27] was 48.8%. For the same molecule, the viability, T/C [28] was 53.9%, the viability, T/C [29] was 50.5% and the viability, T/C [30] was 46.9%. For the same molecule, the viability, T/C (second compound 10 µM, first compound 0.316 µM) was 36.2% and the viability, T/C (second compound 10 µM, first compound 1 µM) was 36.7%.
Molecule `O=C(C=Cc1cccc(S(=O)(=O)Nc2ccccc2)c1)NO` + NC1CCC(NC2CC2c2ccccc2)CC1 has an IC50 (second compound 0.1 µM) of over 3000 nM, an IC50 (second compound 0.316 µM) of over 3000 nM and an IC50 (second compound 1 µM) of over 3000 nM. It also gave an IC50 (second compound 3.16 µM) of 294 nM, an IC50 (second compound 10 µM) of 895 nM and a viability, T/C (second compound 0.1 µM, first compound 0.00949 µM) of 106%. For the same molecule, the viability, T/C (second compound 0.1 µM, first compound 0.03 µM) was 112%, the viability, T/C (second compound 0.1 µM, first compound 0.0949 µM) was 88.3% and the viability, T/C (second compound 0.1 µM, first compound 0.3 µM) was 43.7%. For the same molecule, the viability, T/C (second compound 0.1 µM, first compound 0.949 µM) was 16.5%, the viability, T/C (second compound 0.1 µM, first compound 3 µM) was 104% and the viability, T/C (second compound 0.316 µM, first compound 0.00949 µM) was 112%. For the same molecule, the viability, T/C (second compound 0.316 µM, first compound 0.03 µM) was 104%, the viability, T/C (second compound 0.316 µM, first compound 0.0949 µM) was 90.1% and the viability, T/C (second compound 0.316 µM, first compound 0.3 µM) was 46.7%. It also gave a viability, T/C (second compound 0.316 µM, first compound 0.949 µM) of 11.5%, a viability, T/C (second compound 0.316 µM, first compound 3 µM) of 98.8% and a viability, T/C (second compound 1 µM, first compound 0.00949 µM) of 96.9%. For the same molecule, the viability, T/C (second compound 1 µM, first compound 0.03 µM) was 97.3%, the viability, T/C (second compound 1 µM, first compound 0.0949 µM) was 81.4% and the viability, T/C (second compound 1 µM, first compound 0.3 µM) was 53%. For the same molecule, the viability, T/C (second compound 1 µM, first compound 0.949 µM) was 13%, the viability, T/C (second compound 1 µM, first compound 3 µM) was 88% and the viability, T/C (second compound 3.16 µM, first compound 0.00949 µM) was 99.4%. It also gave a viability, T/C (second compound 3.16 µM, first compound 0.03 µM) of 102%, a viability, T/C (second compound 3.16 µM, first compound 0.0949 µM) of 84.6% and a viability, T/C (second compound 3.16 µM, first compound 0.3 µM) of 50.1%. For the same molecule, the viability, T/C (second compound 3.16 µM, first compound 0.949 µM) was 6.88%, the viability, T/C (second compound 3.16 µM, first compound 3 µM) was 89.7% and the viability, T/C (second compound 10 µM, first compound 0.00949 µM) was 99.9%. For the same molecule, the viability, T/C (second compound 10 µM, first compound 0.03 µM) was 97.2%, the viability, T/C (second compound 10 µM, first compound 0.0949 µM) was 79.5% and the viability, T/C (second compound 10 µM, first compound 0.3 µM) was 51.5%. The viability, T/C (second compound 10 µM, first compound 0.949 µM) was 11.2% and the viability, T/C (second compound 10 µM, first compound 3 µM) was 88%.
